# Reference: ChEMBL document CHEMBL1201862, “PubChem BioAssay data set” (2004)
# Activity calls are given as the source filed them.
# Assays:
# Fatty acid synthase [1] = biological target: T1, Fatty acid synthase (Homo sapiens, UniProt P49327); assay: inhibition of human FAS-TE enzyme activity – biochemical, kinetic fluorescence intensity, dose response (AID 624326); type: functional;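 further: rate of fluorescence rise from hydrolysis of a fluorogenic O-methyl fluorescein ester substrate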
# Fatty acid synthase [2] = biological target: T1, Fatty acid synthase; assay: inhibition of human FAS-TE enzyme activity – biochemical, endpoint fluorescence intensity, uHTS hits, dose response (AID 624327); type: functional;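 further: fluorescence from hydrolysis of an O-methyl fluorescein acyl ester substrate by the enzyme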
# BJ [3] = assay: BJ-TERT fibroblast viability loss – cell-based, RAS-independent, luminescence, dose response (AID 1933); type: functional; conditions: Homo sapiens
# [4] = alpha-synuclein stem-loop luciferase translation blockers – H4 neuroglioma cells, luminescence, confirmation (AID 1988); type: functional, cell-based
# Protein RecA = biological target: T2, Protein RecA (Mycobacterium tuberculosis, UniProt P9WHJ3); assay: Fluorescence Cell-Free Homogeneous Dose Retest to Identify Inhibitors of RecA-Intein Splicing Activity. [Related pubchem assays (depositor defined):AID2097, AID2223, AID489010, AID492950]; type: functional
# T2 sequence (P9WHJ3 whole entry): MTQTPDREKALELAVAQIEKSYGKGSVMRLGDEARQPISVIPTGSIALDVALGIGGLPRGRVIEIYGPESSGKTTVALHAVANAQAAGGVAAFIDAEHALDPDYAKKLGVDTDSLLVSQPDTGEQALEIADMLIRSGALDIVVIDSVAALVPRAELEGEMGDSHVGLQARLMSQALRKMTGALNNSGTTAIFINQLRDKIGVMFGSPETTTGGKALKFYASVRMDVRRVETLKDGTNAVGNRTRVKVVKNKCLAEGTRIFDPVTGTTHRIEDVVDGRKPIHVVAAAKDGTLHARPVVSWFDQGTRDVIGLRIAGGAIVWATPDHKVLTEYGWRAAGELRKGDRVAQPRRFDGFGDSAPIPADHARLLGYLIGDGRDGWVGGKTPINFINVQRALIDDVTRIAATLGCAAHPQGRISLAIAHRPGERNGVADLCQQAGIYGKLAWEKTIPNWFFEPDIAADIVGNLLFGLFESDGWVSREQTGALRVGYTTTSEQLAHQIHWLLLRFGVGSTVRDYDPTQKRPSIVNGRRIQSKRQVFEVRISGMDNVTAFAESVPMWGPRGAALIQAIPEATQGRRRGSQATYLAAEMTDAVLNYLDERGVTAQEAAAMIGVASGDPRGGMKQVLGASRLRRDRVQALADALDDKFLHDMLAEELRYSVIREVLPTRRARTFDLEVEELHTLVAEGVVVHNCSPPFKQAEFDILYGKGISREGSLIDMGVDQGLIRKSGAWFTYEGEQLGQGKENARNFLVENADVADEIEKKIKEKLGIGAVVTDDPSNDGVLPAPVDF
# [5] = THP-1 cell cytotoxicity, dose response, cytotoxicity control for non-replicating M. tuberculosis project (AID 489025); type: functional
# BJ [6] = assay: BJ-TERT-LT-ST fibroblast viability loss – cell-based, RAS-independent, luminescence, dose response (AID 1935); type: functional; conditions: Homo sapiens;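 further: BJ fibroblasts immortalized with TERT plus LT and ST oncogenes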
# [7] = DRD fibroblast viability loss – cell-based, non-viral oncogenic, luminescence, dose response (AID 1934); type: functional; conditions: Homo sapiens
# [8] = luciferase reporter signal suppression in cells – H4 neuroglioma cells, luminescence, dose response (AID 1990); type: functional, cell-based
# BJ [9] = assay: cells; type: functional, cell-based; conditions: Homo sapiens
# [10] = biological target: T3, Replicative DNA helicase DnaB (Mycobacterium tuberculosis, UniProt P9WMR3); assay: DnaB intein splicing inhibitors, dose response, biochemical, cell-free fluorescence (AID 449749); type: functional
# T3 sequence (P9WMR3 whole entry): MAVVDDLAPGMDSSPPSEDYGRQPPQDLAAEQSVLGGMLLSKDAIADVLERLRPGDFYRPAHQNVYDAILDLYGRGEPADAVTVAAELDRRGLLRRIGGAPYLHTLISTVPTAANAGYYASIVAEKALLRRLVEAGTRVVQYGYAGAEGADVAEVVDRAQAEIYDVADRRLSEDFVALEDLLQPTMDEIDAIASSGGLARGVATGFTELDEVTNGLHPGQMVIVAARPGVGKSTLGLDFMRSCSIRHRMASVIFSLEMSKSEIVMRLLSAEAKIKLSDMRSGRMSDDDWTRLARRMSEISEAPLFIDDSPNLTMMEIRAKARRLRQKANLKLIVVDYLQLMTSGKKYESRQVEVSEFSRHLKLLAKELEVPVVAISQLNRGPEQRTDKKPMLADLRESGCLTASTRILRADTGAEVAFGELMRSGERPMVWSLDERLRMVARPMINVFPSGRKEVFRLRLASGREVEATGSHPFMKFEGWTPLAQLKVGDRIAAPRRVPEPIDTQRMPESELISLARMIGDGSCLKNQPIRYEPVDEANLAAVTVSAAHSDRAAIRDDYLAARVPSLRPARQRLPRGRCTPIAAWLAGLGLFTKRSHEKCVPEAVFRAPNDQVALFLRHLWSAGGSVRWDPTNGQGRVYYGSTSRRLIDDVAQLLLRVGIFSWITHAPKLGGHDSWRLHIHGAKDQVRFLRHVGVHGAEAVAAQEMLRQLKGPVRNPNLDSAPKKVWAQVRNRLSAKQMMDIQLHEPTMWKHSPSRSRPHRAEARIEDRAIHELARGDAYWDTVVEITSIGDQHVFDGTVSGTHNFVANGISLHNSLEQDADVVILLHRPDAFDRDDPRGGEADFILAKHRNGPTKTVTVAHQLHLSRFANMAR
# cells = type: functional
# [11] = Luminescence Cell-Based Dose Response HTS to Identify Inhibitors of 5'UTR Stem-Loop Driven Prion Protein mRNA Translation in H4 Neuroglioblastoma Cells. [Related pubchem assays: 1827 (Project Summary), 1813 (Primary HTS)]; type: functional
# [12] = Luminescence Cell-Based Dose Confirmation HTS to Identify Inhibitors of Platelet Dense Granule Release. [Related pubchem assays: 1663 (Primary HTS), 1678 (Summary of Project)]; type: functional
# [13] = biological target: Luciferin 4-monooxygenase (Photinus pyralis, UniProt P08659); assay: inhibition of purified Photinus pyralis luciferase – biochemical, luminescence, dose response (AID 1891)
# Luciferin 4-monooxygenase, sequence (P08659 whole entry): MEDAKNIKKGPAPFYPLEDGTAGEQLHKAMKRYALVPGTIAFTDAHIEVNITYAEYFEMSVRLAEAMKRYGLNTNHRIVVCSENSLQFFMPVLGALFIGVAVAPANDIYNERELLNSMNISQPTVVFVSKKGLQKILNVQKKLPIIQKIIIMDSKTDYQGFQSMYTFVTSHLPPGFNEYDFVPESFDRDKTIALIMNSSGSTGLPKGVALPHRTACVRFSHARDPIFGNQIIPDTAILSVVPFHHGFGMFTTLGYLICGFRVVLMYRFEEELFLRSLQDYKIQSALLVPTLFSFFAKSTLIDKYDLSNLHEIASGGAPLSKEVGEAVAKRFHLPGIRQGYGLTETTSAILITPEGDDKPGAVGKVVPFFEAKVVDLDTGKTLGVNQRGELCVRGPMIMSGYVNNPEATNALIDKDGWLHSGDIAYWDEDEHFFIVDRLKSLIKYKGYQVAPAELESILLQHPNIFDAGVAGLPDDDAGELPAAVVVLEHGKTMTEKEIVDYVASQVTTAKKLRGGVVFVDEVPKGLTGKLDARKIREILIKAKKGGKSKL
# HEK293 = assay: EBV LMP1 TES2 canonical NF-kB signalling blockers – cell-based, HEK293, luciferase, cherry-pick, dose response (AID 588343); type: functional, Homo sapiens; conditions: Homo sapiens, HEK293
# [14] = biological target: T4, Heat shock factor protein 1 (Mus musculus, UniProt P38532); assay: enhancement of HSF1-driven luciferase signal – cell-based, NIH3T3, luminescence, dose retest, confirmation (AID 435004); type: functional;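 further: stress induced by proteasome inhibitor MG132 added 30 min after compound; luciferase reporter driven by HSF1 response element in NIH3T3 cells; actives raise luminescence as potentiators of the MG132 stress response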
# T4 sequence (P38532 whole entry): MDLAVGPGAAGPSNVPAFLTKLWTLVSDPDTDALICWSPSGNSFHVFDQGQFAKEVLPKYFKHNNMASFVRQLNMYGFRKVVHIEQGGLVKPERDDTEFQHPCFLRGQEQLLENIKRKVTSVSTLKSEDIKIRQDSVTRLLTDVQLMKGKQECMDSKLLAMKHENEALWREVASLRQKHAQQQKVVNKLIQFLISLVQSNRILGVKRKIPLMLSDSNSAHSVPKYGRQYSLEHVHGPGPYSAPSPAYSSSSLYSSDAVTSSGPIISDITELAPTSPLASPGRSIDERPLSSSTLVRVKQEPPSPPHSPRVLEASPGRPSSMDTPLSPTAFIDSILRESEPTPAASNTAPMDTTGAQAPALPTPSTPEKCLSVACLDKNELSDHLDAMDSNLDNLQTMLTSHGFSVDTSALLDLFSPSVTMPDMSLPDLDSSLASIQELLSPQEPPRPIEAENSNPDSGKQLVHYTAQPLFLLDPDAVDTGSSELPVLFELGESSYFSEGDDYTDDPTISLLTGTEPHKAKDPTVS
# Protein skinhead-1 = biological target: T5, Protein skinhead-1 (Caenorhabditis elegans, UniProt P34707); type: functional
# T5 sequence (P34707 whole entry): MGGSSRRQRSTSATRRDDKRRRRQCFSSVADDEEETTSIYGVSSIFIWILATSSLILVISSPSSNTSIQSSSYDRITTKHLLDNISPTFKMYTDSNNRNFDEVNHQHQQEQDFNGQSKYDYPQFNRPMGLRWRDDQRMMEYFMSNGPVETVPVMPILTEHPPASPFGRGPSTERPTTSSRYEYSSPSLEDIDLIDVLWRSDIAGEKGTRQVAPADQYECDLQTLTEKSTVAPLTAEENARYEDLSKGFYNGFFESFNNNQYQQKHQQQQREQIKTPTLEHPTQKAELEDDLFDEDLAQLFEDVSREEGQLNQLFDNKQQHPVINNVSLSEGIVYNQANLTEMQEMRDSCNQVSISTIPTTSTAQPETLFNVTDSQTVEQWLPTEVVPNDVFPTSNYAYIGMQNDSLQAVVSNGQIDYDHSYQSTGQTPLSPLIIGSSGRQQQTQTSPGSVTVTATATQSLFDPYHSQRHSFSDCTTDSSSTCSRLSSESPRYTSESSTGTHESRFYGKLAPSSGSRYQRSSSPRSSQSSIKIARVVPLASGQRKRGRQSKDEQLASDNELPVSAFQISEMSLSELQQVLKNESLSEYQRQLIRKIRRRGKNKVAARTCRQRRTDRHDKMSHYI
# H9c2 = assay: cells; type: functional, cell-based; conditions: Rattus norvegicus, H9c2, Myocardium;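 further: confirmatory concentration-response retest of ultra-high-throughput screening hits for modulation of myocardial damage; cell death induced by hydrogen peroxide oxidative stress; compound pretreatment for 60 min then peroxide exposure for 2 h; potency is for protecting the cells against peroxide damage rather than for killing them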
# [15] = P. falciparum Dd2 growth inhibitors, dose response, SYBR Green, cherry-picked samples (AID 1159567); type: functional, cell-based
# [16] = tested on: Streptococcus sp. 'group A'; assay: Streptococcus pyogenes SK(-)GAS viability under kanamycin – luminescence, BacTiterGlo, confirmation, counter-screen for streptokinase expression inhibitor project, dose response (AID 1900); type: functional, organism-based
# Streptococcus = assay: GAS UMAA2166 growth inhibition – luminescence, BacTiterGlo, counter-screen for streptokinase expression inhibitor project, dose response (AID 1915); type: functional, organism-based;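 further: potency for reduction of bacterial viability or growth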
# Cytochrome P450 2D6 = Cytochrome P450 2D6 (Homo sapiens, UniProt P10635);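 further: CYP2D6 member of a cytochrome P450 panel assay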
# Cytochrome P450 2D6, sequence (P10635 whole entry): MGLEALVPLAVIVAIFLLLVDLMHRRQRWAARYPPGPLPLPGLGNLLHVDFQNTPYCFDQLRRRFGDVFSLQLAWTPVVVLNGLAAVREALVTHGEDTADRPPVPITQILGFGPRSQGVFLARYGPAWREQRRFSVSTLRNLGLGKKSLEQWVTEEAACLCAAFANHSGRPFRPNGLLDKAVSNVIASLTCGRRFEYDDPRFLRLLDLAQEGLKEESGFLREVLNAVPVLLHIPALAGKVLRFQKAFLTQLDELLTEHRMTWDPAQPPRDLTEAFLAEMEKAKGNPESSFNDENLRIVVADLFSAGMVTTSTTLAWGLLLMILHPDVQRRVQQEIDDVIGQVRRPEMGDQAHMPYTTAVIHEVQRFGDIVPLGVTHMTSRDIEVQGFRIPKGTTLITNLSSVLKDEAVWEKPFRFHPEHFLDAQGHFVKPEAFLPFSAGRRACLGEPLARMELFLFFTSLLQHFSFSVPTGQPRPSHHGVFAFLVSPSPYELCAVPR
# T1 sequence (P49327 whole entry): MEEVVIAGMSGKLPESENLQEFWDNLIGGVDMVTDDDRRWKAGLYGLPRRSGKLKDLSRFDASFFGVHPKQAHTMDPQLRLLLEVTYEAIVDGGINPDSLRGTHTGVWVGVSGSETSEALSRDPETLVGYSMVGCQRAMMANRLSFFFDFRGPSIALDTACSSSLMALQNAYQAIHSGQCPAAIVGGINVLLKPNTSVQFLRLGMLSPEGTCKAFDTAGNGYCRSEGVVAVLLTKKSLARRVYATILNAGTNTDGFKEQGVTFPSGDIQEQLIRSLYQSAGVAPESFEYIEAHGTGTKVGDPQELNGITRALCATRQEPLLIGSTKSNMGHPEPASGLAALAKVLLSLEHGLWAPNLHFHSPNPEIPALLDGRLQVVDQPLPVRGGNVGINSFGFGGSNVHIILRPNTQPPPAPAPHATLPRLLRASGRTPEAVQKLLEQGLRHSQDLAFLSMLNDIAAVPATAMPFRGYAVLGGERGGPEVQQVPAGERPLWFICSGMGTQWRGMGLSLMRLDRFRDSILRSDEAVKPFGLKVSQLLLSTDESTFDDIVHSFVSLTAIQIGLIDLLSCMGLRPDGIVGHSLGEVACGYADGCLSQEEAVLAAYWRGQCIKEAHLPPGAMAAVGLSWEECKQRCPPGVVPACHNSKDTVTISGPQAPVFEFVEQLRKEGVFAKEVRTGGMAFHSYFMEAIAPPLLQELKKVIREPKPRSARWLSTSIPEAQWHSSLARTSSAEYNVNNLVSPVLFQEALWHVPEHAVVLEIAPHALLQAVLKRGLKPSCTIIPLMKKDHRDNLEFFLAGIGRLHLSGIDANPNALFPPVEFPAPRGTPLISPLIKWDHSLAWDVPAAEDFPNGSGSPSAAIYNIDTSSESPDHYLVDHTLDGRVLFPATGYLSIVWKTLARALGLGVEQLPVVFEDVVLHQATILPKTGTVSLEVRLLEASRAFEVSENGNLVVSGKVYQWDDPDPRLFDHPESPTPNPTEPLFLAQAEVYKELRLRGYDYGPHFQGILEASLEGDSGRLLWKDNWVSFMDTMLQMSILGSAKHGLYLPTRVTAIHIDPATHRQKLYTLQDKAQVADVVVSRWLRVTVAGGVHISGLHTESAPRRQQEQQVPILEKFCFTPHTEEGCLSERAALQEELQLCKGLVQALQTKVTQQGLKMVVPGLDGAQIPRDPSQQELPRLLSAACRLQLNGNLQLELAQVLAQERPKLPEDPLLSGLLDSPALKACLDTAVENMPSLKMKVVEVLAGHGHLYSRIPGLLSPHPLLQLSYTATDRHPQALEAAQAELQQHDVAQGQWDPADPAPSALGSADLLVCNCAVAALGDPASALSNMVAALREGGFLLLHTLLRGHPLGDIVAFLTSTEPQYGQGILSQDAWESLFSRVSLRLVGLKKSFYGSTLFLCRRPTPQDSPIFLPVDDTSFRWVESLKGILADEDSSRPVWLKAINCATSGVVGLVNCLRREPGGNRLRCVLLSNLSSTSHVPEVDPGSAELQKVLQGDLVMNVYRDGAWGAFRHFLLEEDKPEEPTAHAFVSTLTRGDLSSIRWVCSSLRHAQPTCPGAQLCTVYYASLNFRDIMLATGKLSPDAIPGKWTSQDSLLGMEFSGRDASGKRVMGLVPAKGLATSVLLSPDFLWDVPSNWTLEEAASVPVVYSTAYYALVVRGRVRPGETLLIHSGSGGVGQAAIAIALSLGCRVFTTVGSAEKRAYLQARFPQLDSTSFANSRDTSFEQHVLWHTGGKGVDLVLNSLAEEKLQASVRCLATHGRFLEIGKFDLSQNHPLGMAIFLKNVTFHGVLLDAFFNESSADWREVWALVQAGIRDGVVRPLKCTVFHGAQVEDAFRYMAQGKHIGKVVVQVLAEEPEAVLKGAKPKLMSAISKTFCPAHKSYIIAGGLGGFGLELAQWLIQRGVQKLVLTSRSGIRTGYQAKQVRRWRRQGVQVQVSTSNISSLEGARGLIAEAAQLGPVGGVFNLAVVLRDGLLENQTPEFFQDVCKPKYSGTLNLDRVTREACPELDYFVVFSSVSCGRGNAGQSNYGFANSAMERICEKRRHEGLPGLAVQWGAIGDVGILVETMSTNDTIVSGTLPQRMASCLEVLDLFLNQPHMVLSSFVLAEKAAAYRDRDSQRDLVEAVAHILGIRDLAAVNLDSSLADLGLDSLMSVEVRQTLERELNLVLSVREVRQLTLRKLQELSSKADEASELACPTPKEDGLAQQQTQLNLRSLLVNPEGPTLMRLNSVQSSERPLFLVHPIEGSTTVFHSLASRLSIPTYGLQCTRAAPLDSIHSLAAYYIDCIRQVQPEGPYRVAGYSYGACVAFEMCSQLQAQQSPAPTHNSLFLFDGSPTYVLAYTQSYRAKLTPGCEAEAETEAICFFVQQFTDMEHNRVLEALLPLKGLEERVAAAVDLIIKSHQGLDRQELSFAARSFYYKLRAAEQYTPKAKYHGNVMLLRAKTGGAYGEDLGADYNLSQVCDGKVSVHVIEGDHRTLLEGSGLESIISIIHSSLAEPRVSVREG
smiles,measurement,setting,value
O=C(Cn1c(=O)c2sccc2n(Cc2ccc([N+](=O)[O-])cc2)c1=O)NCCc1ccccc1,IC50,Fatty acid synthase [1],4.79 µM (active)
same,IC50,Fatty acid synthase [2],5.6 µM (active)
CC(C)NC(=O)N(C)C[C@H]1Oc2c(NC(=O)Nc3ccc(C(F)(F)F)cc3)cccc2C(=O)N([C@H](C)CO)C[C@@H]1C,IC50,Fatty acid synthase [1],1.08 µM (active)
same,IC50,Fatty acid synthase [2],0.842 µM (active)
O=C(Nc1ncc([N+](=O)[O-])s1)c1ccc2c(c1)OCO2,EC50,BJ [3],14.1 µM (active)
same,EC50,[4],3.42 µM (active)
same,EC50,Protein RecA,16.5 µM (active)
same,CC50,[5],28.9 µM (active)
same,EC50,BJ [6],> 150 µM (inconclusive)
same,EC50,[7],10.3 µM (active)
same,EC50,[8],4.23 µM (active)
same,EC50,BJ [9],13.5 µM (active)
same,AC50,[10],21.2 µM (active)
same,IC50,cells,34.4 µM (active)
same,EC50,[11],7.3 µM (active)
same,EC50,[12],2.39 µM (active)
same,EC50,[13],0.324 µM (active)
Cc1ccc([N+](=O)[O-])cc1N=C(S)NCCc1ccccc1,IC50,Fatty acid synthase [1],13.1 µM (active)
same,IC50,Fatty acid synthase [2],12.1 µM (active)
COc1ccc(/C=N/Nc2cc(OC)ncn2)cc1,AC50,HEK293,11.2 µM (active)
same,EC50,[14],> 260 µM (inactive)
same,EC50,[12],5.24 µM (active)
same,EC50,[13],6.11 µM (active)
O=C(Nc1ccccc1)OCCCc1ccccc1 [3-PHENYLPROPYL PHENYLCARBAMATE],IC50,Protein skinhead-1,68.6 µM (inactive)
O=C(CCc1nc(O)c2ccccc2n1)N1CCCc2ccccc21,IC50,H9c2,> 79 µM (inactive)
Cc1cc(C)c2c(N)c(C(=O)N/N=C/c3cccnc3)sc2n1,IC50,H9c2,> 79 µM (inactive)
C[C@H]1CN([C@@H](C)CO)C(=O)c2c(c3ccccc3n2C)-c2ccccc2CO[C@@H]1CN(C)S(=O)(=O)c1ccccc1F,AC50,[15],3.81 µM (active)
O=C(Nc1nnc(-c2ccco2)o1)c1ccc(Cl)s1,EC50,[16],3.01 µM (active)
same,EC50,Streptococcus,10.1 µM (active)
same,CC50,[5],> 40 µM (active)
same,IC50,cells,1.57 µM (active)
C=CCNc1nc(-c2ccc(Cl)cc2)cs1,IC50,Protein skinhead-1,> 100 µM (inactive)
same,AC50,Cytochrome P450 2D6,25.1 µM (inconclusive)
O=C(c1cc(O)nc2ccccc12)N1CCN(S(=O)(=O)c2ccc(Cl)cc2)CC1,IC50,H9c2,14.4 µM (active)
CC(C)c1ccc(NC(=O)NCc2cccnc2)cc1,IC50,Protein skinhead-1,> 100 µM (inactive)
CCCNC(=O)N1CCC2(CC1)CN(Cc1cccc(F)c1)[C@@H](CO)c1[nH]c3cc(OC)ccc3c12,AC50,[15],10.2 µM (active)
COc1ccc(N2CC(C(=O)NCc3nnc(O)c4ccccc34)CC2=O)cc1 (stereo not given),IC50,H9c2,12.9 µM (active)
COc1ccc2c3c([nH]c2c1)[C@@H](CO)N(Cc1cccc(Cl)c1)CC31CN(C(C)=O)C1,AC50,[15],10.6 µM (active)
COc1cccc(C(=O)O/N=C(\N)c2ccccn2)c1OC,AC50,HEK293,2.67 µM (active)
O=C1C2CCCN2c2ccc(S(=O)(=O)N3CCOCC3)cc2N1Cc1ccccc1F (stereo not given),AC50,HEK293,> 350 µM (inactive)
O=C(Cn1[nH]c(=O)c2ccccc2c1=O)NNC(=O)c1ccccc1,IC50,H9c2,18.6 µM (active)
COc1ccc2c3c([nH]c2c1)[C@@H](CO)N(C(=O)Cc1ccccc1)CC31CCN(C(=O)Cc2ccccc2)CC1,AC50,[15],4.77 µM (active)
COc1ccc(NC(=O)N(CCCN(C)C)Cc2cc3cc(OC)ccc3nc2O)cc1,IC50,H9c2,> 79 µM (inactive)
COC(=O)C1=C(C)N=C(C)/C(=C(/O)OC)C1c1ccc(OC(=O)c2ccco2)cc1 (stereo not given),IC50,Protein skinhead-1,> 100 µM (inactive)
COc1ccc(C2CC(c3cccs3)n3nc(N)nc3N2)cc1 (stereo not given),IC50,H9c2,> 79 µM (inactive)
CC(C)(C)OC(=O)CNC(=O)c1[nH]cnc1C(=O)NCC(=O)OCc1ccccc1,IC50,H9c2,> 79 µM (inactive)
Cc1cccc(Cn2c(Sc3nc(C)cs3)nc3c2c(=O)[nH]c(=O)n3C)c1,IC50,Protein skinhead-1,> 100 µM (inactive)
CCCC(=O)N1CCC2(CC1)CN[C@@H](CO)c1[nH]c3cc(OC)ccc3c12,AC50,[15],6.24 µM (active)
COC(=O)c1cccc(S(=O)(=O)N(Cc2ccco2)Cc2cc3cc(OC)ccc3nc2O)c1,IC50,H9c2,31.7 µM (inactive)
Cc1cc2cc(CN(Cc3ccco3)S(=O)(=O)c3c(C)ccc4nsnc34)c(O)nc2cc1C,AC50,HEK293,0.968 µM (active)
